Where two headings read alike, the source gives them in different places.
What was measured:
HSV-2 = HSV-2 release from infected Vero cells, plaque assay; conditions: for EC50: read-out: EC50 (μM) Inhibition of HSV-2 Budding at 24 h
[1] = target: T1, Tsg101-UEV (Tsg101 amino acids 1-145) (Homo sapiens, UniProt Q99816); assay: Fluorescence thermal shift (FTS) assay, binding to Tsg101-UEV; conditions: FTS dose response, result in words
T1 sequence (Q99816 1-145): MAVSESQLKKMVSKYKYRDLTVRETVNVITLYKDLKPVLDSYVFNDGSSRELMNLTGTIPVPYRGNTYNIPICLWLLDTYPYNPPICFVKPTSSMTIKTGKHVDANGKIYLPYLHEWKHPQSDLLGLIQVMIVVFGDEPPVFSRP
Procedure: The fluorescence-based thermal shift assay is based on the observation that a protein unfolds upon heating, exposing the hydrophobic residues within its tertiary structure. The unfolding temperature (Tm) is determined by the protein's primary sequence and solution environment. The FTS assay uses a fluorescent dye sensitive to a hydrophobic environment to probe protein stability and its modulation by small molecule ligands. The dye has a low fluorescence quantum yield when in a polar environment. Once in contact with the hydrophobic core normally buried within a folded protein that has become exposed during the thermal unfolding (melting) process, the quantum yield of the dye increases, thus providing a reporting signal. Furthermore, a protein's stability can be affected by ligand binding, resulting in an increase or decrease in its melting temperature. FTS assay uses the Tm shift upon binding of a ligand to identify hit compounds for drug discovery.
We screened chemical compounds using a fluorescence thermal shift (FTS) assay (27, 28) to identify small molecules that bind directly to a truncated form of Tsg101 (amino acids 1-145) which contains the Ubiquitin E2 variant (UEV) ubiquitin-binding domain (FIG. 1A, 1B, 1C). […] This truncated Tsg101, called Tsg101-UEV, was used because full-length Tsg101 has significant solubility issues in aqueous solution. Tsg101 is an adaptor protein and thus lacks a readily deployable functional assay, making FTS a tractable approach to identify interacting compounds. FTS monitors protein thermal denaturation using SYPRO® Orange, a dye which fluoresces when bound to hydrophobic surfaces, which allows monitoring of the changes in hydrophobic surface exposure during protein denaturation (27). Since ligand binding affects protein thermal stability, it can be detected through modulation of protein thermal denaturation (melting) as a shift in melting temperature (Tm). Tsg101-UEV has a well-defined melting curve suitable for FTS. We used the FTS assay to identify compounds that bind to Tsg101-UEV.
Fluorescence thermal shift (FTS) screening to identify small molecule binding to Tsg101-UEV. FTS using thermal shift elicited by the small molecule binding effect to protein stability. FTS monitors protein thermal denaturation using environment-sensitive dye Sypro® Orange which fluoresces when bound to hydrophobic surfaces, taking advantage of the changes in hydrophobic surface exposure in protein denaturation. Discovery of small molecule binding to target protein utilizes the observation that ligand binding affects protein thermal stability, and therefore can be detected through a shift in the protein's thermal denaturation (melting) temperature (Tm). We have employed FTS to reveal changes in thermodynamic properties of Tsg101 elicited by its interaction with a small molecule. […] A fluorescence dye Sypro® Orange (Invitrogen) was used for assay detection. The dye is excited at 473 nm and has a fluorescence emission at 610 nm. The dye binds to hydrophobic regions of a protein that are normally buried in a native protein structure. […] The Tsg101 fragment was premixed at a concentration of 2 μM with a 5× concentration of Sypro® Orange in HEPES buffer (100 mM HEPES, 150 mM NaCl, pH 7.5). Then 10 μl of the protein-dye mix was added to an assay plate and 10 to 50 nanoliters of compound, equal to 10 to 50 μM, were added with an acoustic transfer robot Echo550 (Labcyte, CA).

[2] = HSV-2 infected Vero cells, virus released into media, plaque assay
[3] = Human alphaherpesvirus 2, Vero, 24 h

| Compound | EC50 (HSV-2; [2]) | EC50 (HSV-2; [3]) | further results |
| --- | --- | --- | --- |
| 4-desmethoxy-omeprazole | 52 µM | – | – |
| 5-methoxy-2[[(3,5-dimethyl-4-methoxy-pridin-2-yl-N-oxide)methyl]sulfinyl]-1H-benzimidazole [O-omeprazole] | – | – | EC50 (μM) Inhibition of HSV-2 Budding at 24 h (HSV-2; [2]): inactive; Thermal shift (Tm shift) of Tsg101-UEV caused by compound [1]: did not cause a detectable thermal shift |
| Cc1c(OCC(F)(F)F)ccnc1C[S+]([O-])c1nc2ccccc2[nH]1 (stereo not drawn) [Lansoprazole] | – | 84 µM | – |
| COc1ccc2[nH]c([S+]([O-])Cc3ncc(C)c(OC)c3C)nc2c1 (stereo not drawn) [Omeprazole] | – | 78 µM | – |
| Dexlansoprazole | 76 µM | – | – |

From patent publication US20230265069A1, “Small Molecule Inhibitors That Block the Budding of Enveloped Viruses” (priority 2020, published 2023)
